This passage reports Eff. % and LogP results from patent US9822099B2, “Triazole derivatives” (priority 2013, dated 2017).

Molecules are shown by their SMILES. Like-named read-outs stand apart in the source and are kept apart here. Marks after values point to notes of the source that are not given here.

Series [1] has as its system Puccinia recondita. Description: Example B: in vivo preventive test on Puccinia recondita (brown rust on wheat). Particulars: wheat plants, preventive spray, evaluated 11 days after inoculation. On the procedure:
The young plants of wheat are treated by spraying the active ingredient prepared as described above. Control plants are treated only with an aqueous solution of acetone/Dimethyl sulfoxide/Tween®. After 24 hours, the plants are contaminated by spraying the leaves with an aqueous suspension of Puccinia recondita spores.

For series [2], the system named is Septoria tritici. Description: Example D: in vivo preventive test on Septoria tritici (leaf spot on wheat). As to conditions: wheat plants, preventive spray, evaluated 24 days after inoculation. The protocol:
The young plants of wheat are treated by spraying the active ingredient prepared as described above. Control plants are treated only with an aqueous solution of acetone/Dimethyl sulfoxide/Tween®. After 24 hours, the plants are contaminated by spraying the leaves with an aqueous suspension of Septoria tritici spores.

For series [3], the system named is Fusarium nivale (var. majus). Description: Example J: Fusarium nivale (var. majus)-test (wheat)/preventive. Particulars: 500 ppm of active ingredient, preventive, evaluated 5 days after inoculation. In kind it is in vivo. On the procedure: (§1) Solvent: 49 parts by weight of N,N-dimethylacetamide
(§2) Emulsifier: 1 part by weight of alkylaryl polyglycol ether
(§3) To produce a suitable preparation of active compound, 1 part by weight of active compound or active compound combination is mixed with the stated amounts of solvent and emulsifier, and the concentrate is diluted with water to the desired concentration.
To test for preventive activity, young plants are sprayed with the preparation of active compound or active compound combination at the stated rate of application.
After the spray coating has been dried, the plants are slightly injured by using a sandblast and afterwards they are sprayed with a conidia suspension of Fusarium nivale (var. majus).
The plants are placed in the greenhouse under a translucent incubation cabinet at a temperature of approximately 10° C. and a relative atmospheric humidity of approximately 100%.
(§4) The test is evaluated 5 days after the inoculation. 0% means an efficacy which corresponds to that of the untreated control, while an efficacy of 100% means that no disease is observed.

For series [4], the system named is Fusarium culmorum. As to the kind of experiment: Example H: Fusarium culmorum-test (wheat)/curative. In kind it is in vivo. Particulars: 500 ppm of active ingredient, curative, evaluated 5 days after inoculation. The protocol:
as §1, §2, §3
To test for curative activity, young plants are slightly injured by using a sandblast and afterwards they are sprayed with a conidia suspension of Fusarium culmorum and placed for 24 hours in a greenhouse under a translucent incubation cabinet at a temperature of approximately 22° C. and a relative atmospheric humidity of approximately 100% and are subsequently sprayed with the preparation of active compound at the stated rate of application.
After the spray coating has been dried, the plants remain in the greenhouse under translucent incubation cloches at a temperature of approximately 22° C. and a relative atmospheric humidity of approximately 100%.
as §4

The test system of series [5] is Blumeria graminis f. sp. hordei. As to the kind of experiment: Example G: Blumeria test (barley)/preventive. Particulars: 500 ppm of active ingredient, preventive, evaluated 7 days after inoculation. In kind it is in vivo. The protocol: (§5) Solvent: 49 parts by weight of N,N-dimethylacetamide Emulsifier: 1 part by weight of alkylaryl polyglycol ether To produce a suitable preparation of active compound, 1 part by weight of active compound or active compound combination is mixed with the stated amounts of solvent and emulsifier, and the concentrate is diluted with water to the desired concentration. To test for preventive activity, young plants are sprayed with the preparation of active compound or active compound combination at the stated rate of application. After the spray coating has been dried, the plants are dusted with spores of Blumeria graminis f. sp. hordei.

In series [6] the test system is Fusarium graminearum. In kind it is in vivo. As to conditions: 500 ppm of active ingredient; barley, preventive; evaluated 5 days after inoculation.
Series [7] relates to Leptosphaeria nodorum. As to the kind of experiment: Example K: Leptosphaeria nodorum test (wheat)/preventive. In kind it is in vivo. As to conditions: 500 ppm of active ingredient, preventive, evaluated 8 days after inoculation. On the procedure:
as §5, with “sprayed” for “dusted”, “a spore suspension” for “spores”, “Leptosphaeria nodorum.” for “Blumeria graminis f. sp. hordei.”

Series [8] has as its system Sphaerotheca fuliginea. Description: Example E: in vivo preventive test on Sphaerotheca fuliginea (powdery mildew on cucurbits). As to conditions: gherkin plants, preventive spray, evaluated 15 days after inoculation. On the procedure: The young plants of gherkin are treated by spraying the active ingredient prepared as described above. Control plants are treated only with an aqueous solution of acetone/Dimethyl sulfoxide/Tween®. After 24 hours, the plants are contaminated by spraying the leaves with an aqueous suspension of Sphaerotheca fuliginea spores.

Series [9] has as its system Uromyces appendiculatus. Description: Example F: in vivo preventive test on Uromyces appendiculatus (bean rust). Particulars: bean plants, preventive spray, evaluated 11 days after inoculation. The protocol: The young plants of bean are treated by spraying the active ingredient prepared as described above. Control plants are treated only with an aqueous solution of acetone/Dimethyl sulfoxide/Tween®. After 24 hours, the plants are contaminated by spraying the leaves with an aqueous suspension of Uromyces appendiculatus spores.

The subject of series [10] is Phakopsora pachyrhizi. As to the kind of experiment: Example L: Phakopsora test (soybeans)/preventive. In kind it is in vivo. Particulars: preventive, evaluated 7 days after inoculation.
For series [11], the system named is Pyricularia oryzae. In kind it is in vivo. Particulars: 500 ppm of active ingredient; rice, preventive; evaluated 8 days after inoculation.
In series [12] the test system is Botrytis cinerea. As to the kind of experiment: Example A: in vivo preventive test on Botrytis cinerea (grey mould). As to conditions: gherkin plants, preventive spray, evaluated 4 to 5 days after inoculation. On the procedure:
The young plants of gherkin are treated by spraying the active ingredient prepared as described above. Control plants are treated only with an aqueous solution of acetone/Dimethyl sulfoxide/Tween®. After 24 hours, the plants are contaminated by spraying the leaves with an aqueous suspension of Botrytis cinerea spores.

The test system of series [13] is Pyrenophora teres. As to the kind of experiment: Example C: in vivo preventive test on Pyrenophora teres (net blotch on barley). As to conditions: 500 ppm of active ingredient; barley plants, preventive spray; evaluated 14 days after inoculation. The protocol: The young plants of barley are treated by spraying the active ingredient prepared as described above. Control plants are treated only with an aqueous solution of acetone/Dimethyl sulfoxide/Tween®. After 24 hours, the plants are contaminated by spraying the leaves with an aqueous suspension of Pyrenophora teres spores.

With `CC(CF)(CF)C(O)(Cc1ccncc1F)Cn1cncn1` (stereo not shown) [Example I-21], the Eff. % in [1] (100 ppm of active ingredient) amounted to 98%; in [2] (100 ppm of active ingredient), 100%; in series [3], 100%; in series [4], 100%; in series [5], 100%; in series [6] it was 100%. The Eff. % was 94% in series [7], 100% in series [8] (100 ppm of active ingredient), 100% in series [9] (100 ppm of active ingredient) and 93% in series [10] (10 ppm of active ingredient). The LogP (pH 2.7) was 1.27^[a].
`OC(Cc1cccnc1Cl)(Cn1cncn1)C1(Cl)CC1` (single isomer, unassigned) [Example I-94]: the Eff. % in [3] came to 100%; in [5], 100%; in [7], 71%; in series [11] it was 70%. Also, the LogP was 1.81^[a] (pH 2.7) and 1.79^[b]; (pH 7.8).
In the case of `OC(Cc1cc(Cl)ncc1F)(Cn1cncn1)C1(Cl)CC1` (stereo not shown) [Example I-40], the Eff. % came to 97% in series [1] (500 ppm of active ingredient); 100% in series [2] (500 ppm of active ingredient); 86% in series [3]; 100% in [5]; 100% in series [6]; 100% in series [7]. Besides, the Eff. % in series [12] (500 ppm of active ingredient) came to 97%; in series [8] (500 ppm of active ingredient), 100%; in series [9] (500 ppm of active ingredient), 100%; in series [13], 100%; in series [10] (10 ppm of active ingredient), 73%. Further, the LogP (pH 2.7) is 2.06^[a].
As for `OC(Cc1cc(Cl)ncc1Cl)(Cn1cncn1)C1(Cl)CC1` (stereo not shown) [Example I-58], the Eff. % in series [1] (500 ppm of active ingredient) is given as 97%; in series [2] (500 ppm of active ingredient) it was 100%; in [3], 100%; in series [5], 100%; in series [6], 100%; in series [7], 93%. Also, the Eff. % in series [12] (500 ppm of active ingredient) turned out to be 98%; in [8] (500 ppm of active ingredient), 100%; in series [11] it was 100%; in series [9] (500 ppm of active ingredient), 100%; in series [13], 95%; in series [10] (10 ppm of active ingredient), 89%. Also, the LogP (pH 2.7) was 2.53^[a].
Turning to `OC(Cc1ccnc2ccccc12)(Cn1cncn1)C1(Cl)CC1` (stereo not shown) [Example I-27], the Eff. % was 93% in series [3]; 100% in series [5]; 100% in [6]; 98% in series [12] (100 ppm of active ingredient); 100% in [8] (100 ppm of active ingredient); 89% in series [11]. Moreover, the Eff. % in series [9] (100 ppm of active ingredient) stood at 98%. Moreover, the LogP (pH 2.7) was 1.00^[a].
Take `OC(Cc1ccncc1C(F)(F)F)(Cn1cncn1)C1(Cl)CC1` (racemic) [Example I-81]: the Eff. % in series [1] (500 ppm of active ingredient), in series [2] (500 ppm of active ingredient), in series [3], in series [5], in series [6] and in [7] was 100% throughout. In addition, the Eff. % in series [12] (500 ppm of active ingredient) stood at 99%; in series [8] (500 ppm of active ingredient), 100%; in series [11] it was 100%; in series [9] (500 ppm of active ingredient), 100%; in series [13] it was 97%; in series [10] (10 ppm of active ingredient) it was 85%. Further, for the setting “pH 2.7”, the LogP is 2.08^[a].
`OC(Cc1cccnc1Cl)(Cn1cncn1)C1(Cl)CC1` (single isomer, unassigned) [Example I-95]: the Eff. % in [3], in [5], in series [6], in series [7] and in [11] was 100% in each case. In addition, the LogP is 1.81^[a] (pH 2.7) and 1.79^[b]; (pH 7.8).
With `OC(Cc1cc(Cl)nnc1Cl)(Cn1cncn1)C1(Cl)CC1` (stereo not shown) [Example I-46], the Eff. % in [1] (100 ppm of active ingredient) is reported as 88%; in [2] (100 ppm of active ingredient), 100%; in [3], 100%; in series [6], 92%; in series [7], 83%; in series [8] (100 ppm of active ingredient), 100%. The molecule also gave an Eff. % in [11] of 78%. Moreover, the LogP (pH 2.7) was 1.92^[a].
Regarding `OC(Cc1nccnc1Br)(Cn1cncn1)C1(Cl)CC1` (racemic) [Example I-71], the Eff. % is 94% in series [1] (500 ppm of active ingredient); 100% in series [2] (500 ppm of active ingredient); 94% in [3]; 100% in series [5]; 100% in series [6]; 100% in series [12] (500 ppm of active ingredient). The Eff. % was 100% in series [8] (500 ppm of active ingredient), 80% in series [11], 99% in series [9] (500 ppm of active ingredient) and 79% in series [13]. Also, the LogP (pH 2.7) is 1.96^[a].
Consider `OC(Cc1ccncc1Cl)(Cn1cncn1)C1CCC1` (racemic) [Example I-77], for which the Eff. % in series [1] (500 ppm of active ingredient) is 98%; in [2] (500 ppm of active ingredient), 100%; in [3], 83%; in series [5] it was 100%; in series [6], 86%; in series [12] (500 ppm of active ingredient) it was 100%. For the same molecule, the Eff. % is 100% in series [8] (500 ppm of active ingredient); 86% in series [11]; 100% in series [9] (500 ppm of active ingredient); 86% in [13]; 100% in [10] (100 ppm of active ingredient). For the setting “pH 2.7”, the LogP is 1.46^[a].
For the molecule `OC(Cc1ccc(Cl)nc1)(Cn1cncn1)C1(Cl)CC1` (stereo not shown) [Example I-4], the Eff. % is reported as 100% in [1] (500 ppm of active ingredient); 96% in series [2] (500 ppm of active ingredient); 71% in [3]; 92% in series [4]; 100% in series [5]; 80% in series [7]. In addition, the Eff. % in series [12] (500 ppm of active ingredient) was determined as 100%; in series [8] (500 ppm of active ingredient), 100%; in series [9] (500 ppm of active ingredient) it was 97%; in series [10] (100 ppm of active ingredient) it was 95%. Also, for the setting “pH 2.7”, the LogP is 1.84^[a].
